Measured values from patent US9238016B2, “Antibiotic composition comprising flufenamic acid as an active ingredient” (SUNGKYUNKWAN UNIVERSITY FOUNDATION FOR CORPORATE …, priority 2010, dated 2016).
Values after ≈ are worked out from the molar mass of the structure shown.

Assays:
MRSA [1] = assay: MICs of antibiotics against MRSA in the presence of flufenamic acid (synergy); assay type: cell-based, Staphylococcus aureus; details: for susceptibility of MRSA to the antibiotic in the presence of FLF: with FLF (FIG. 4B, 4C)
S. aureus MSSA = assay: MIC by broth dilution method; assay type: cell-based; details: Staphylococcus aureus, 24 hours of incubation
S. aureus MRSA = assay: MIC by broth dilution method; assay type: cell-based, Staphylococcus aureus
Description: (§1) FLF was assayed for inhibitory activity against Methicillin-resistant staphylococcus aureus (MRSA). In this regard, Methicillin-resistant Staphylococcus aureus (MRSA) was cultured overnight and 200-fold diluted in 2 mL of LB containing various concentrations of FLF. After additional incubation at 37° C. for 8 hours, cell densities were measured by recoding OD at 600 nm.
(§2) FLF was examined for inhibitory activity against various bacteria. Staphylococcus epidermidis, Bacillus subtilis, Listeria monocytogenes and Enterococcus faecium were cultured overnight and 200-fold diluted in 2 mL of LB containing various concentrations of FLF. Cell densities were determined by measuring the OD at 600 nm after incubation at 37° C. for 8 hours. The MICs of FLF were determined using a broth dilution method. In brief, bacteria were inoculated into LB containing serially diluted concentrations of FLF in 96-well microplates. After 24 hours of incubation, bacterial growth was examined. Antibacterial activity of FLF was tested over various Gram-positive bacteria including Staphylococcus epidermidis, Bacillus subtilis, Listeria monocytogenes, and Enterococcus faecium.

B. subtilis = assay: MIC by broth dilution method; assay type: cell-based; details: Bacillus subtilis, 24 hours of incubation
Description: as §2

E. faecium = assay: MIC by broth dilution method; assay type: cell-based; details: Enterococcus faecium, 24 hours of incubation
Description: as §2

L. monocytogenes = assay: MIC by broth dilution method; assay type: cell-based; details: Listeria monocytogenes, 24 hours of incubation
Description: as §2

S. epidermidis = assay: MIC by broth dilution method; assay type: cell-based; details: Staphylococcus epidermidis, 24 hours of incubation
Description: as §2

[2] = tested on: Methicillin-resistant Staphylococcus aureus (MRSA); assay: Growth inhibition, cell density OD 600 nm; assay type: cell-based; details: 8 h, read-out: growth inhibited
Description: as §1

Bacillus subtilis = assay: Growth inhibition, cell density OD 600 nm; assay type: cell-based; details: 20~40 μg/mL FLF, 8 hours
Description: as §2

Enterococcus faecium = assay: Growth inhibition, cell density OD 600 nm; assay type: cell-based; details: 20~40 μg/mL FLF, 8 hours
Description: as §2

Listeria monocytogenes = assay: Growth inhibition, cell density OD 600 nm; assay type: cell-based; details: 20~40 μg/mL FLF, 8 hours
Description: as §2

[3] = tested on: Staphylococcus epidermidis; assay: Growth inhibition, cell density OD 600 nm; assay type: cell-based; details: 20~40 μg/mL FLF, 8 hours
Description: as §2

SA1606 [4] = target: T1, SA1606 (Staphylococcus aureus, UniProt Q2FXE2); assay: Binding affinity by isothermal titration calorimetry; set-up: species or system S. aureus; details: ITC, 10 mM HEPES pH 7.0, 3% DMSO; read-out: dissociation constant (Kd)
T1 sequence (Q2FXE2 1-277 N135K/V136A/R184H/A227G/T230I/K274T): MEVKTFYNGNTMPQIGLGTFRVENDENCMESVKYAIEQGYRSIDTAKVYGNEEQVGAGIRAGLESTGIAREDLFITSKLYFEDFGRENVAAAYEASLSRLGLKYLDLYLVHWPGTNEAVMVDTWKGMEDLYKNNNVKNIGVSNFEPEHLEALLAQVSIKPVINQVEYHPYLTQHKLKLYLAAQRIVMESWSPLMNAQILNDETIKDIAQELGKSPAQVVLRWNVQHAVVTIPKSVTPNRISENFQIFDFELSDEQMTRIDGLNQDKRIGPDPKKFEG
Text: (§3) Genes of SA1606 (GenBank number: BAB42874) and […] (GenBank number: BAB43292) were amplified using PCR with the genomic DNA of S. aureus N315 serving as a template. PCR primers were 5′-[…] […]-3′ (SEQ ID NO: 4) and 5′-[…]-3′ (SEQ ID NO: 5) for SA1606, and 5′-[…]-3′ (SEQ ID NO: 6) and 5′-5 […]-3′ (SEQ ID NO: 7) for SA2001. Ncol and Xhol restriction sites were incorporated into the forward primer sequences and the reverse primer sequences, respectively. The PCR products were digested with Ncol and Xhol and inserted into Ncol/Xhol-digested pET28a vectors (Novagen). The DNAs 10 thus ligated were transformed into E. coli BL21 DE3 (Invitrogen). Coding sequences of the cloned genes SA1606 and SA2001 were confirmed by nucleotide sequencing. Recombinant SA1606 and SA2001 with histidine tag at the C-terminus were expressed in E. coli and then loaded into Hi-Trap chelating 15 columns (GE Healthcare) equilibrated with buffer A (20 mM HEPES, pH 7.5, 50 mM imadazole and 500 mM NaCl). […]
(§4) Binding affinity for SA1606 and SA2001 of FLF was measured using VP-ITC Micro calorimeter (MicroCal Inc). […] Thereafter, the affinity of FLF for the proteins were calculated on the basis of the heat generated upon the binding of FLF to the proteins. The data was analyzed with ORIGIN software (MicroCal Inc).

SA2001 [5] = target: T2, SA2001 (Staphylococcus aureus, UniProt Q2FW57, N2D); assay: as above; set-up: species or system S. aureus; details: ITC, 10 mM HEPES pH 7.0, 3% DMSO; read-out: dissociation constant (Kd)
T2 sequence (Q2FW57 1-279 N2D): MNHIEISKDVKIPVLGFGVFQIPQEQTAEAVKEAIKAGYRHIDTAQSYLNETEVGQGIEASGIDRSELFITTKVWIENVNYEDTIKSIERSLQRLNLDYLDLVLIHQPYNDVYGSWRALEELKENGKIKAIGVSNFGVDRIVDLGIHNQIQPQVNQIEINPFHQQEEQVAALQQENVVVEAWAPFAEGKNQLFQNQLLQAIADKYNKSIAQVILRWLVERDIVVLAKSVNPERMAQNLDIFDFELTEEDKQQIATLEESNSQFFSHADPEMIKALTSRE
Text: as §3, §4

SA1606 [6] = target: T1, SA1606; assay: Aldo-keto reductase enzymatic assay (NADPH absorbance 340 nm, methylglyoxal); assay type: biochemical, S. aureus; details: 0.5 mM NADPH, 5 mM methylglyoxal, 10 μM enzyme, pH 7.0
Description: (§5) Aldo-keto reductase (AKR) activity was measured to examine whether FLF inhibits the enzymatic activities of SA1606 and SA2001 on the basis of the data of Example 8 showing the binding of FLF to SA16006 and SA2001. On the whole, bacterial AKR catalyzes the reduction of various chemicals with NADPH. […] As is evidenced in Example 6, SA1606 and SA2001 have structural and functional similarity with the human aldo-keto reductase AKR1C3 and the bacterial aldo-keto reductase DkgA. Thus, the enzymatic activity of […] was measured to analyze the inhibitory activity of FLF. The reaction for evaluating enzymatic activity was comprised of 0.5 mM NADPH, 5 mM methylglyoxal and 10 μM aldo-keto reductase in 50 mM sodium phosphate buffer, pH 7.0. Absorbance at 340 nm of the reaction was measured for 10 min to calculate the consumption of NADPH.

SA2001 [7] = target: T3, SA2001 (Staphylococcus aureus, UniProt Q2FW57); assay: as above; assay type: biochemical, S. aureus; details: 0.5 mM NADPH, 5 mM methylglyoxal, 10 μM enzyme, pH 7.0
T3 sequence (Q2FW57 1-279 N2D): T2 sequence (Q2FW57 1-279 N2D)
Description: as §5

MRSA [8] = assay: Screening of Prestwick chemical library for inhibitory activity against bacteria; assay type: cell-based, S. aureus; details: 100 μg/mL, 24 hours
Description: To screen compounds having inhibitory activity against bacteria, MRSA was 200-fold diluted in 0.2 mL of LB in 96-well microplates and cultured overnight at 37° C. with agitation at 180 RPM. Prestwick chemical library was added at a final concentration of 100 μg/mL per well. The microplates were incubated at 37° C. for 24 hours with agitation at 180 RPM and the optical density at 600 nm was measured.

CC(=O)OCC1=C(C(=O)O)N2C(=O)[C@@H](NC(=O)Cc3cccs3)[C@H]2SC1 [Cephalothin]
MICs of antibiotic against MRSA (MRSA [1]; 10 μg/ml FLF): 128 µg/mL
MICs of antibiotic against MRSA (MRSA [1]; 20 μg/ml FLF): 64 µg/mL
MICs of antibiotic against MRSA (MRSA [1]; 30 μg/ml FLF): 16 µg/mL
MICs of antibiotic against MRSA (MRSA [1]; 40 μg/ml FLF): 4 µg/mL
MICs of antibiotic against MRSA (MRSA [1]; No FLF): 128 µg/mL
susceptibility of MRSA to the antibiotic in the presence of FLF (MRSA [1]): far more susceptible

O=C(O)c1ccccc1Nc1cccc(C(F)(F)F)c1 [FLF, flufenamic acid]
MIC (S. aureus MSSA): 64 µg/mL (≈ 228 µM)
MICs (S. aureus MRSA; S. aureus MRSA, 24 hours of incubation): 64 µg/mL
MIC (S. aureus MRSA; Staphylococcus aureus, MRSA, 24 h, read-out: MICs): 64 µg/mL (≈ 228 µM)
MIC (B. subtilis): 32 µg/mL (≈ 114 µM)
MIC (E. faecium): 32 µg/mL (≈ 114 µM)
MIC (L. monocytogenes): 32 µg/mL (≈ 114 µM)
MIC (S. epidermidis): 64 µg/mL (≈ 228 µM)
inhibition at 40 µg/mL [2]: 90%
growth inhibited (Bacillus subtilis): 90%
growth inhibited (Enterococcus faecium): 90%
growth inhibited (Listeria monocytogenes): 90%
growth inhibited [3]: 90%
synergistic effect with classical antibiotics (MRSA [1]; FLF in combination with Norfloxacin, Oxacillin or Cephalothin, MRSA): synergistically inhibited
Kd (SA1606 [4]): 14.5 µM
Kd (SA2001 [5]): 38.1 µM
enzymatic activity (reduction of methylglyoxal with NADPH) in the presence of FLF (SA1606 [6]): inhibited
enzymatic activity (reduction of methylglyoxal with NADPH) in the presence of FLF (SA2001 [7]): inhibited
inhibitory activity against bacteria (OD 600 nm) in library screen (MRSA [8]): most inhibitory

CCn1cc(C(=O)O)c(=O)c2cc(F)c(N3CCNCC3)cc21 [Norfloxacin]
MICs of antibiotic against MRSA (MRSA [1]; 10 μg/ml FLF): 64 µg/mL
MICs of antibiotic against MRSA (MRSA [1]; 20 μg/ml FLF): 32 µg/mL
MICs of antibiotic against MRSA (MRSA [1]; 30 μg/ml FLF): 16 µg/mL
MICs of antibiotic against MRSA (MRSA [1]; 40 μg/ml FLF): 8 µg/mL
MICs of antibiotic against MRSA (MRSA [1]; No FLF): 128 µg/mL

Cc1onc(-c2ccccc2)c1C(=O)N[C@@H]1C(=O)N2[C@@H]1SC(C)(C)[C@@H]2C(=O)O [Oxacillin]
MICs of antibiotic against MRSA (MRSA [1]; 10 μg/ml FLF): 256 µg/mL
MICs of antibiotic against MRSA (MRSA [1]; 30 μg/ml FLF): 32 µg/mL
MICs of antibiotic against MRSA (MRSA [1]; 40 μg/ml FLF): 8 µg/mL
MICs of antibiotic against MRSA (MRSA [1]; No FLF): >256 µg/mL
susceptibility of MRSA to the antibiotic in the presence of FLF (MRSA [1]): far more susceptible
